Literature values as cited in patent US20150376703A1, “METHOD AND SYSTEM TO PREDICT RESPONSE TO PAIN TREATMENTS” (PATHWAY GENOMICS CORPORATION, priority 2013, published 2015).

How the values were obtained:
KCNE2 (T8A in MiRP 1) = molecular target: T1, KCNE2 (T8A in MiRP 1) (Homo sapiens, UniProt Q12809+Q9Y6J6, T8A)
T1 construct: host or cells: patients (endogenous protein)

5-Lipoxygenase (ALOX5) = molecular target: T2, 5-Lipoxygenase (ALOX5) (Homo sapiens, UniProt P09917); conditions: patients who share a specific tandem repeat in the promoter
T2 construct: host or cells: patients (endogenous enzyme)
T2 sequence (P09917 1-674): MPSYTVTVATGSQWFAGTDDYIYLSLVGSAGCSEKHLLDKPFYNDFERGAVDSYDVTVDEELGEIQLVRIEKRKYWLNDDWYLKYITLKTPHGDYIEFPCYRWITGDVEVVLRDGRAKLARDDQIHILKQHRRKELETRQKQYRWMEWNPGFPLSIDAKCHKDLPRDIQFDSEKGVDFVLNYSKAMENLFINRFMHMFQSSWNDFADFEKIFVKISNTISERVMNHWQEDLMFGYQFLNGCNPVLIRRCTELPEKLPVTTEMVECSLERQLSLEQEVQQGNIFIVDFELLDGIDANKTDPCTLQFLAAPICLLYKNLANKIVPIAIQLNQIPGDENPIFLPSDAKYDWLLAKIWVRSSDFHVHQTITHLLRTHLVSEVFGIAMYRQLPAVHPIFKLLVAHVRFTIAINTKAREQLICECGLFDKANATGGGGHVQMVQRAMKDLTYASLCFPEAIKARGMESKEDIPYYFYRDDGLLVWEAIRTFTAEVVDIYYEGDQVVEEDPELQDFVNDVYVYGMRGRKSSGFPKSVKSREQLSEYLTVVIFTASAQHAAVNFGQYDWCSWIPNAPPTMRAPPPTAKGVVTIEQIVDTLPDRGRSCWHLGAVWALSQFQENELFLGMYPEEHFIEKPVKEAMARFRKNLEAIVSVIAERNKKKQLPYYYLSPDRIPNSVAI

[1] = test system: Glycoprotein IIIa (PLA1/A2) subunit of glycoprotein IIb/IIIa; conditions: patients carrying the PLA2 polymorphism
Alpha-Adducin = conditions: patients who share the 460Gly/Trp polymorphism
ACE (I/D) = molecular target: T3, ACE (I/D) (Homo sapiens, UniProt P12821); conditions: patients bearing the ACE-II-Allele
T3 construct: host or cells: patients (endogenous enzyme)
T3 sequence (P12821 30-1306): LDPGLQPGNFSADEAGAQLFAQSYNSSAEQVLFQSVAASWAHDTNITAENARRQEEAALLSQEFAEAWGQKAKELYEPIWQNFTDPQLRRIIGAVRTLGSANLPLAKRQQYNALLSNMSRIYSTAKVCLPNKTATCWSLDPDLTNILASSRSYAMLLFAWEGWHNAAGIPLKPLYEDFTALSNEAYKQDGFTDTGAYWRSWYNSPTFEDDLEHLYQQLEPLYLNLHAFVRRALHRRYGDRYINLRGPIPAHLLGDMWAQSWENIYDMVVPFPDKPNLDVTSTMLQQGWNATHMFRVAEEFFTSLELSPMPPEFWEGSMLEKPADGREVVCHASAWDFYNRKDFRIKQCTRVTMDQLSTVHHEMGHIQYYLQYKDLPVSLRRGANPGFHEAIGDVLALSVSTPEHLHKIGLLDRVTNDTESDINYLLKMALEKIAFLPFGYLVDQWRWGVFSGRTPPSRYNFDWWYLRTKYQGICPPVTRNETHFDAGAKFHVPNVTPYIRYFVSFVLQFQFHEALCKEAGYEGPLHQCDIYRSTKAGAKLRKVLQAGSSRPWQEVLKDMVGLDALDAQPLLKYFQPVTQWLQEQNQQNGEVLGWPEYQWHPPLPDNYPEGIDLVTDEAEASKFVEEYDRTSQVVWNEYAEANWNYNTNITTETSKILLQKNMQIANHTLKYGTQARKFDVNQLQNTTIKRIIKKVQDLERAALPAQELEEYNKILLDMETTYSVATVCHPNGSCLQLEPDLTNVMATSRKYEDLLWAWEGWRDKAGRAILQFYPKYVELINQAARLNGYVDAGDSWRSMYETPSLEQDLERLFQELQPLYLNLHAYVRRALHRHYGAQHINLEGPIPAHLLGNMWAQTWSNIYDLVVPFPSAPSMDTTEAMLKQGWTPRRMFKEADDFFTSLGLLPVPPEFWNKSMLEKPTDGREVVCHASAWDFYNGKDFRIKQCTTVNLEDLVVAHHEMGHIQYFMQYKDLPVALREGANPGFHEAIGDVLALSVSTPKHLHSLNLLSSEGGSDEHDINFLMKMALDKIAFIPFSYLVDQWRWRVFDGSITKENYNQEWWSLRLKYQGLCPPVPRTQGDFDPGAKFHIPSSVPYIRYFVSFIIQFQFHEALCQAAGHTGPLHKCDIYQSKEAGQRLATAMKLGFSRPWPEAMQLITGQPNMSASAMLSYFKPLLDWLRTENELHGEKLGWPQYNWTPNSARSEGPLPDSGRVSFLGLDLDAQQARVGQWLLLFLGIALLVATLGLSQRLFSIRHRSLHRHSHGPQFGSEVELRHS

T1 sequence (Q9Y6J6 whole entry T8A): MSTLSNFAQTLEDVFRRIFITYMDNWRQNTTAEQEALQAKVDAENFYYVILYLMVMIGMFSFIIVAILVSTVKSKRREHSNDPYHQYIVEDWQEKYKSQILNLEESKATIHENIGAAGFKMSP
T1 sequence (Q12809 whole entry): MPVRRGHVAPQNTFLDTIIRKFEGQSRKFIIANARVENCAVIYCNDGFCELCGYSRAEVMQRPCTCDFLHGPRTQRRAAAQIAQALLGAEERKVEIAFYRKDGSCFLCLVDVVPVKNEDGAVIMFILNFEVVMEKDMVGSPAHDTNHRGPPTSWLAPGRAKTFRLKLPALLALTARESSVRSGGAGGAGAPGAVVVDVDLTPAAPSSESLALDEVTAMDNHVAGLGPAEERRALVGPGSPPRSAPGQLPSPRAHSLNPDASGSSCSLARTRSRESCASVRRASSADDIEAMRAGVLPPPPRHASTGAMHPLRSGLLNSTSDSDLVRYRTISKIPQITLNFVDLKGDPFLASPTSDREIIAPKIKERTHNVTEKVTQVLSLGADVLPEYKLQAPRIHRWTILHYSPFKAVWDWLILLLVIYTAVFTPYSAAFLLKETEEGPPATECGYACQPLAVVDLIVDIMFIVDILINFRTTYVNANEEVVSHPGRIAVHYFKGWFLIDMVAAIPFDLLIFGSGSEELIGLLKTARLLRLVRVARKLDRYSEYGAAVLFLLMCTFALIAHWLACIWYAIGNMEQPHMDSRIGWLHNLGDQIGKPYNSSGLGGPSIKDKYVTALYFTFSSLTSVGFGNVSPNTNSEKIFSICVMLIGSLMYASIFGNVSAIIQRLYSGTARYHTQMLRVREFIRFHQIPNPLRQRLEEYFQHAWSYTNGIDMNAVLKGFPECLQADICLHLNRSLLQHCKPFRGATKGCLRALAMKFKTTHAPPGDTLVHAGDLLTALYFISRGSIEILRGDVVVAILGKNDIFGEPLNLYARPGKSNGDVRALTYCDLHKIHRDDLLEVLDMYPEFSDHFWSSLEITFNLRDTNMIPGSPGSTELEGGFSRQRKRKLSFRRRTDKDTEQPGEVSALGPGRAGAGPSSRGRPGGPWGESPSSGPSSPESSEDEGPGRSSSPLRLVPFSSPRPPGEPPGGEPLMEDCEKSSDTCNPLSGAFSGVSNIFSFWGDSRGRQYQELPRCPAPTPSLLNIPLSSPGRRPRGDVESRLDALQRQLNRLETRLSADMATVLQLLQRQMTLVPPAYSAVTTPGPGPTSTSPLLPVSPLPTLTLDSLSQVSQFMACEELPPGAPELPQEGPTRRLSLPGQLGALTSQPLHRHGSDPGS

O=c1[nH]c2ccccc2n1CCCN1CCN(C(c2ccccc2)c2ccccc2)CC1 [Oxatomid]
Clinical Result: adverse effect (KCNE2 (T8A in MiRP 1)): Drug induced Long-QT-

CC(c1cc2ccccc2s1)N(O)C(N)=O (centres unmarked) [Zileuton]
Clinical Result (5-Lipoxygenase (ALOX5)): No effect in patients who

CC(=O)Oc1ccccc1C(=O)O [Aspirin]
Clinical Result: antiplatelet effect [1]: Reduced response in patients

Cc1cc(NS(=O)(=O)c2ccc(N)cc2)no1 [Sulfamethoxazol]
Clinical Result: adverse effect (KCNE2 (T8A in MiRP 1)): Drug induced Long-QT-

NS(=O)(=O)c1cc2c(cc1Cl)NCNS2(=O)=O [Hydrochlorothiazide]
Clinical Result: sensitivity (Alpha-Adducin): hypertension). Higher

C[C@H](N[C@@H](CCc1ccccc1)C(=O)O)C(=O)N1CCC[C@H]1C(=O)O [Enalaprilat]
Clinical Result: response (ACE (I/D)): Better response of patients

CCOC(=O)[C@H](CCc1ccccc1)N[C@@H](C)C(=O)N1CCC[C@H]1C(=O)O [enalapril]
Clinical Result: response (ACE (I/D)): Better response of patients

B1: Abciximab (antibody, chains of the INN, looked up, V domains shown)
VH: EVQLQQSGTVLARPGASVKMSCEASGYTFTNYWMHWVKQRPGQGLEWIGAIYPGNSDTSYIQKFKGKAKLTAVTSTTSVYMELSSLTNEDSAVYYCTLYDGYYVFAYWGQGTLVTVSA
VL: EIVLTQSPVTLSVTPGDSVSLSCRASRDISNNLHWFQQTSHESPRLLIKYASQSMSGIPSRFSGSGSGTDFTLSINSVETEDFGMYFCQQTNSWPYTFGGGTKLEIK
Clinical Result: antiplatelet effect [1]: Reduced response in patients
